Source: US6340679B1, “Guanidine derivatives as inhibitors of cell adhesion” (Aventis Pharma Deutschland GmbH, priority 1999, dated 2002)

Key:
[1] = target: T1, human vitronectin receptor αvβ3 (Homo sapiens, UniProt P05106+P06756); test: Inhibition of the binding of kistrin to human vitronectin receptor (αvβ3 ELISA Test, K/VnR)
T1 construct: Human vitronectin receptor was obtained from the human placenta; from tissue; host or cells: human placenta
Source text: The inhibition of the binding of kistrin to human vitronectin receptor (VnR) described below is a test method by which, for example, the antagonistic action of the compounds according to the invention on the vitronectin receptor αvβ3 can be determined (αvβ3 ELISA Test; the test method is abbreviated as “K/VnR” in the listing of the test results).
Kistrin was purified according to the methods of Dennis et al., as described in Proc. Natl. Acad. Sci. USA 87 (1989) 2471-2475 and PROTEINS: Structure, Function and Genetics 15 (1993) 312-321.
Human vitronectin receptor was obtained from the human placenta according to the method of Pytela et al., Methods Enzymol. 144 (1987) 475. Human vitronectin receptor αvβ3 can also be obtained from some cell lines (for example from 293 cells, a human embryonic kidney cell line) which are co-transfected with DNA sequences for both subunits αv and β3 of the vitronectin receptor. The subunits are extracted with octyl glycoside and then chromatographed through concanavalin A, heparin-Sepharose and S-300.
Murine monoclonal antibodies which are specific for the β3 subunits of the vitronectin receptor were prepared according to the method of Newman et al., Blood (1985) 227-232, or by a similar process. The rabbit Fab 2 anti-mouse Fc conjugate to horseradish peroxidase (anti-mouse Fc HRP) was obtained from Pel Freeze (Catalog No. 715 305-1).
The ability of substances to inhibit the binding of kistrin to the vitronectin receptor can be determined using an ELISA test. For this purpose, Nunc 96-well microtiter plates were coated with a solution of kistrin (0.002 mg/ml) according to the method of Dennis et al., as described in PROTEINS: Structure, Function and Genetics 15 (1993) 312-321. The plates were then washed twice with PBS/0.05% Tween-20 and blocked by incubating (60 min) with bovine serum albumin (BSA, 0.5%, RIA grade or better) in buffer solution (Tris-HCl (50 mM), NaCl (100 mM), MgCl2 (1 mM), CaCl2 (1 mM), MnCl2 (1 mM), pH 7). Solutions of known inhibitors and of the test substances were prepared in concentrations from 2×10^−12 to 2×10^−6 mol/l in assay buffer (BSA (0.5%, RIA grade or better); Tris-HCl (50 mM), NaCl (100 mM), MgCl2 (1 mM), CaCl2 (1 mM), MnCl2 (1 mM), pH 7). The blocked plates were emptied, and in each case 0.025 ml of this solution which contained a defined concentration (2×10^−12 to 2×10^−6 mol/l ) either of a known inhibitor or of a test substance, were added to each well. 0.025 ml of a solution of the vitronectin receptor in assay buffer (0.03 mg/ml) was pipetted into each well of the plate and the plate was incubated at room temperature for 60-180 min on a shaker. In the meantime, a solution (6 ml/plate) of a murine monoclonal antibody specific for the β3 subunit of the vitronectin receptor was prepared in assay buffer (0.0015 mg/ml). A second rabbit antibody (0.001 ml of stock solution/6 ml of the murine monoclonal anti-β3 antibody solution) which was an anti-mouse Fc HRP antibody conjugate was added to this solution, and this mixture of murine anti-β3 antibody and rabbit anti-mouse Fc HRP antibody conjugate was incubated during the time of the receptor-inhibitor incubation. The test plates were washed four times with PBS solution which contained 0.05% Tween-20, and in each case 0.05 ml/well of the antibody mixture was pipetted into each well of the plate and incubated for 60-180 min. The plate was washed four times with PBS/0.05% Tween-20 and then developed with 0.05 ml/well of a PBS solution which contained 0.67 mg/ml of o-phenylenediamine and 0.012% of H2O2. Alternatively to this, o-phenylenediamine can be employed in a buffer (pH 5) which contains Na3PO4 and citric acid. The color development was stopped using 1 N H2SO4 (0.05 ml/well). The absorption for each well was measured at 492-405 nm and the data were evaluated by standard methods.

[2] = target: GP IIb/IIIa (Homo sapiens, UniProt P05106+P08514); test: Fibrinogen-GP IIbIIIa Receptor ELISA Binding Assay (GP IIb/IIIa); conditions: read-out: GP IIb/IIla IC50
Sequence of GP IIb/IIIa (P08514 32-887 limits assumed): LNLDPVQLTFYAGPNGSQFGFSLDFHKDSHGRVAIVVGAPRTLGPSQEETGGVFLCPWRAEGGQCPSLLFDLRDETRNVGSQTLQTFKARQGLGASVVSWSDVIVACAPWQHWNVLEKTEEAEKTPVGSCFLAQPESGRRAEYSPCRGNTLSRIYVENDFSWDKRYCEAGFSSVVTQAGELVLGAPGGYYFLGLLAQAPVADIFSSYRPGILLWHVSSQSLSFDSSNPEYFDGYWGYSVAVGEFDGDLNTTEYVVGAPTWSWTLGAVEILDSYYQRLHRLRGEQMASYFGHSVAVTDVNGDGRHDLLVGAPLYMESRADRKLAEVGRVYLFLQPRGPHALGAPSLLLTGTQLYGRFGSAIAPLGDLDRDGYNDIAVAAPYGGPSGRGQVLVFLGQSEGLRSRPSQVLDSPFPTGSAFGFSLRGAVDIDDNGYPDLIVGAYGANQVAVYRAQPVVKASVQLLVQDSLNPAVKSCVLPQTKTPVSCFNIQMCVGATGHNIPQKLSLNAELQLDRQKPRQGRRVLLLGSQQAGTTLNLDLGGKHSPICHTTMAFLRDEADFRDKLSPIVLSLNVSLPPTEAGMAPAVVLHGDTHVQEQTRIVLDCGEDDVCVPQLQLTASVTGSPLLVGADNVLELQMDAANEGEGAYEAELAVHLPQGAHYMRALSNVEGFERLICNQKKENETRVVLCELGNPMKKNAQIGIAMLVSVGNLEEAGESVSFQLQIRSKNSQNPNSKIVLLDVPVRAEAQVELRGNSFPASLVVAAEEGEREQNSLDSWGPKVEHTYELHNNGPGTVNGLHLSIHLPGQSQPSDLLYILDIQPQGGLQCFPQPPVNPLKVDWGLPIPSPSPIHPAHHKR
Sequence of GP IIb/IIIa (P08514 891-1039 partner limits assumed): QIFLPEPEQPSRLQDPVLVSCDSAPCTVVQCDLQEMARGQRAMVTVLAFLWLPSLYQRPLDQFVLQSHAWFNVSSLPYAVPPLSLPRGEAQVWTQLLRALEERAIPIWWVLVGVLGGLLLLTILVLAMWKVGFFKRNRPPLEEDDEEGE
Sequence of GP IIb/IIIa (P05106 27-788): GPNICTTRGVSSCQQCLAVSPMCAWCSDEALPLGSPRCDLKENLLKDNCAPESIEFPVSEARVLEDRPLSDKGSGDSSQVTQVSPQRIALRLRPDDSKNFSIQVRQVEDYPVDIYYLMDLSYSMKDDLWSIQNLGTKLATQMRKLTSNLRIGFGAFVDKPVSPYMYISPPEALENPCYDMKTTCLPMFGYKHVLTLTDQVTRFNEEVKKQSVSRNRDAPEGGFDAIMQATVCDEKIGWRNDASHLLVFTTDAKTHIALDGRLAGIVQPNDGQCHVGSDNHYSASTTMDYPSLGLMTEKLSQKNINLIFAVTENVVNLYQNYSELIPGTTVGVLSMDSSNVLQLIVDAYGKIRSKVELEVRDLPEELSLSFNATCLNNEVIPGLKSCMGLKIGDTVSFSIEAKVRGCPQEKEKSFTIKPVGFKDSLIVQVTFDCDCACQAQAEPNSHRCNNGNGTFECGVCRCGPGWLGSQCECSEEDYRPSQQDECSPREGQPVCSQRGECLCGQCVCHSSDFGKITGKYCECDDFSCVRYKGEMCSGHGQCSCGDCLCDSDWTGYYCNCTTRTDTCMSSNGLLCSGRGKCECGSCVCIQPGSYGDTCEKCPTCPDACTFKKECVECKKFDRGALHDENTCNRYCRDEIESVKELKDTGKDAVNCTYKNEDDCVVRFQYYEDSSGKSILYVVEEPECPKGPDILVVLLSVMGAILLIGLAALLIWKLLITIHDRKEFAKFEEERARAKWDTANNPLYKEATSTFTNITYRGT
Protocol: The test for inhibition of GP IIb/IIIa (“Fibrinogen-GP IIbIIIa Receptor ELISA Binding Assay”) was carried out as described in U.S. Pat. No. 5,403,836 which is incorporated herein by reference (the test method is abbreviated as “GP IIb/IIa” in the listing of the test results).

T1 sequence (P06756 31-889 limits assumed): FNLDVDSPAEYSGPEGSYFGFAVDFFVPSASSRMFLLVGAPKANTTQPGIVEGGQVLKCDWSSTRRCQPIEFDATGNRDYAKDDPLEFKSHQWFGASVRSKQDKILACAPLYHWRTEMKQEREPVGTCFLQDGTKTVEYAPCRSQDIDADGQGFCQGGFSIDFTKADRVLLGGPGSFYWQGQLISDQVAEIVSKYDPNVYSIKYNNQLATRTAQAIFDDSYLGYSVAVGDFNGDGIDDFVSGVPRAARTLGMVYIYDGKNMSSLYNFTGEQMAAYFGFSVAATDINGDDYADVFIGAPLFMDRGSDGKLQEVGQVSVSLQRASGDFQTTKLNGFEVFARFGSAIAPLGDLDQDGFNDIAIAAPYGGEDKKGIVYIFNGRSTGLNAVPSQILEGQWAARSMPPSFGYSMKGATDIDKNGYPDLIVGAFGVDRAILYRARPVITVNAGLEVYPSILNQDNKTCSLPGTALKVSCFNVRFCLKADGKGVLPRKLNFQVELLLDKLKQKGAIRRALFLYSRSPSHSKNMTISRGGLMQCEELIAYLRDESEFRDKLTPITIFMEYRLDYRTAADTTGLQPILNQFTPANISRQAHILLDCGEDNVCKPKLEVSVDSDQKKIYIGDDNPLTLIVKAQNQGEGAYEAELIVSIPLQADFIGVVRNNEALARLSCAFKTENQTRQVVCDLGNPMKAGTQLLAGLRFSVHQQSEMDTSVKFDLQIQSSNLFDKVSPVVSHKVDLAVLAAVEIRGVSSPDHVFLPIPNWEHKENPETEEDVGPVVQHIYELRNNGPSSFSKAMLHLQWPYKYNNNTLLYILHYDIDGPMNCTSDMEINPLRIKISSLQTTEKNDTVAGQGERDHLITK
T1 sequence (P06756 891-1048 partner limits assumed): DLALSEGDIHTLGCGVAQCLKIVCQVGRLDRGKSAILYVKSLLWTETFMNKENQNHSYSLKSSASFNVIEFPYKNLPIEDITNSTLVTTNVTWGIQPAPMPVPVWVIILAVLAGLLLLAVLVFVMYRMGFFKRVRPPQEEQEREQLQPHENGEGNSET
T1 sequence (P05106 27-788): as the sequence (P05106 27-788) above

| Structure (SMILES) | IC50 [1] | IC50 [2] |
| --- | --- | --- |
| O=C(CCCOc1ccc(C[C@H](NS(=O)(=O)c2ccc3ccccc3c2)C(=O)O)cc1)NC1=NCCCN1 [Example 1, (2S)-2-(Naphthalene-2-sulfonylamino)-3-{4-[3-(1,4,5,6-tetrahydropyrimidin-2-ylcarbamoyl)-propoxy]-phenyl}-propionic acid] | 7.5 nM | 260 nM |
| O=C(CCCOc1ccc(C[C@H](NS(=O)(=O)c2cccc3ccccc23)C(=O)O)cc1)NC1=NCCCN1 [Example 2, (2S)-2-(Naphthalene-1-sulfonylamino)-3-{4-[3-(1,4,5,6-tetrahydropyrimidin-2-ylcarbamoyl)-propoxy]-phenyl}-propionic acid] | 2.7 nM | 525 nM |
| O=C(CCCOc1ccc(C[C@H](NS(=O)(=O)c2ccc(Cl)cc2)C(=O)O)cc1)NC1=NCCCN1 [Example 3, (2S)-2-(4-Chlorobenzenesulfonylamino)-3-{4-[3-(1,4,5,6-tetrahydropyrimidin-2-ylcarbamoyl)-propoxy]-phenyl}-propionic acid] | 3 nM | 765 nM |
| O=C(CCCOc1ccc(C[C@H](NS(=O)(=O)c2ccccc2)C(=O)O)cc1)NC1=NCCCN1 [Example 4, (2S)-2-Benzenesulfonylamino-3-{4-[3-(1,4,5,6-tetrahydropyrimidin-2-ylcarbamoyl)-propoxy]-phenyl}-propionic acid] | 2.8 nM | 410 nM |
| O=C(CCCOc1ccc(C[C@H](NS(=O)(=O)c2ccc(C(F)(F)F)cc2)C(=O)O)cc1)NC1=NCCCN1 [Example 5, (2S)-3-{4-[3-(1,4,5,6-Tetrahydropyrimidin-2-ylcarbamoyl)-propoxy]-phenyl}-2-(4-trifluoromethylbenzenesulfonylamino)-propionic acid] | 3.5 nM | 3150 nM |
| Cc1ccc(S(=O)(=O)N[C@@H](Cc2ccc(OCCCC(=O)NC3=NCCCN3)cc2)C(=O)O)cc1 [Example 6, (2S)-3-{4-[3-(1,4,5,6-Tetrahydropyrimidin-2-ylcarbamoyl)-propoxy]-phenyl}-2-(toluene4-sulfonylamino)-propionic acid] | 2.8 nM | 720 nM |
| O=C(CCCOc1ccc(C[C@H](NS(=O)(=O)c2ccc(Br)cc2)C(=O)O)cc1)NC1=NCCCN1 [Example 7, (2S)-2-(4-Bromobenzenesulfonylamino)-3-{4-[3-(1,4,5,6-tetrahydropyrimidin-2-ylcarbamoyl)-propoxy]-phenyl}-propionic acid] | 3.5 nM | 950 nM |
| O=C(CCCOc1ccc(C[C@H](NS(=O)(=O)c2cccs2)C(=O)O)cc1)NC1=NCCCN1 [Example 8, (2S)-3-{4-[3-(1,4,5,6-Tetrahydropyrimidin-2-ylcarbamoyl)-propoxy]-phenyl}-2-(thiophene-2-sulfonylamino)-propionic acid] | 2.5 nM | 330 nM |
| CCCCS(=O)(=O)N[C@@H](Cc1ccc(OCCCC(=O)NC2=NCCCN2)cc1)C(=O)O [Example 9, (2S)-2-(Butane-1-sulfonylamino)-3-{4-[3-(1,4,5,6-tetrahydropyrimidin-2-ylcarbamoyl)-propoxy]-phenyl}-propionic acid] | 5.3 nM | 2100 nM |
| CCCCCCCCS(=O)(=O)N[C@@H](Cc1ccc(OCCCC(=O)NC2=NCCCN2)cc1)C(=O)O [Example 10, (2S)-2-(Octane-1-sulfonylamino)-3-{4-[3-(1,4,5,6-tetrahydropyrimidin-2-ylcarbamoyl)-propoxy]-phenyl}-propionic acid] | 7.6 nM | 2400 nM |
